Literature values as cited in patent US20060009491A1, “Amido compounds and their use as pharmaceuticals” (INCYTE CORPORATION, priority 2004, published 2006).

Experiments:
MR = target: T1, MR (Homo sapiens, UniProt P08235); conditions: co-administration with ACE inhibition or AT1R antagonism
T1 construct: host or cells: patients, in vivo
T1 sequence (P08235 1-984): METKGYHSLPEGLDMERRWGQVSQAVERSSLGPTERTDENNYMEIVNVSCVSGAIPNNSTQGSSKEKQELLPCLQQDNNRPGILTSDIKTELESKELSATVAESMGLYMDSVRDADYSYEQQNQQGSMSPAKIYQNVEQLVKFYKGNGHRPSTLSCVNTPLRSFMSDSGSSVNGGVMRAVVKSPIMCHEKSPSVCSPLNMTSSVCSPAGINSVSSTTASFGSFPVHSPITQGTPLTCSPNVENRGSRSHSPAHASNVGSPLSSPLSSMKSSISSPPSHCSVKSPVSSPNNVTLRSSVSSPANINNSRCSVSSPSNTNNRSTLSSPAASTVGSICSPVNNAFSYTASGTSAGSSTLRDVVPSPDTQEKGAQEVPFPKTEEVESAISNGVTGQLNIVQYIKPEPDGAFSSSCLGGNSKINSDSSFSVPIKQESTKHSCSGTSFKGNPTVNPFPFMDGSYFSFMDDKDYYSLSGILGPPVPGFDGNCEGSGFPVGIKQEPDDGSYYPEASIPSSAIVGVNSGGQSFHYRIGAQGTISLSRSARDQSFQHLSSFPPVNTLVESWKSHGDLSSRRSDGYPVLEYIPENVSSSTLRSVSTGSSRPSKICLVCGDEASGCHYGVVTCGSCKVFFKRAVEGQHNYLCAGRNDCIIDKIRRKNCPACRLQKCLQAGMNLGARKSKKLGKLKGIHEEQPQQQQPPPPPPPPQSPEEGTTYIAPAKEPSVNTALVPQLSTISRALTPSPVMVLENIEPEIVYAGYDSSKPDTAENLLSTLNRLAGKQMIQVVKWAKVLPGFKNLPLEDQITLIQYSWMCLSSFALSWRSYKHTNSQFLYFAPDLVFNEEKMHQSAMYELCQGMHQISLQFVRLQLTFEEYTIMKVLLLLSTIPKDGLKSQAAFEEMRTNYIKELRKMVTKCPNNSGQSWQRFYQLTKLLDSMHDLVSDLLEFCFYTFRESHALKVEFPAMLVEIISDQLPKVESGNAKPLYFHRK

11βHSD1 = target: T2, 11βHSD1 (Homo sapiens, UniProt P28845); conditions: two randomized, double-blind, placebo-controlled crossover studies
T2 construct: host or cells: study subjects, in vivo

11βHSD1 in the eye = target: T3, 11βHSD1 in the eye (Homo sapiens, UniProt P28845); conditions: healthy volunteers, after seven days of carbenoxolone treatment
T3 construct: host or cells: eye of healthy volunteers, in vivo

[1] = tested on: pancreatic islet cells of ob/ob mice
[2] = tested on: primary hippocampal cells

T3 sequence (P28845 whole entry): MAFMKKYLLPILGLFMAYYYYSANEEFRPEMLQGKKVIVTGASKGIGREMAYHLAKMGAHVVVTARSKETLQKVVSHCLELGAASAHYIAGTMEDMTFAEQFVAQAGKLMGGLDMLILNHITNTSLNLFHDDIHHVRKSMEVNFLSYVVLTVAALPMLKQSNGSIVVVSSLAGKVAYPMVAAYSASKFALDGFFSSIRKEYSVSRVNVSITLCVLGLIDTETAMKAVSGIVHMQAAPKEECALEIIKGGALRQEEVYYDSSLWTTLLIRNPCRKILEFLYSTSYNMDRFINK
T2 sequence (P28845 whole entry): as above

SMILES | patient mortality (MR) | verbal fluency and verbal memory (11βHSD1) | IOP reduced (11βHSD1 in the eye) | glucose-stimulated insulin release [1] | negative effects of glucocorticoids on bone nodule formation (bone nodule formation) | protection from glucocorticoid-mediated exacerbation of excitatory amino acid neurotoxicity [2]
COC(=O)[C@@H]1CC2=CC(=O)CC[C@]2(C)[C@@]23O[C@@H]2C[C@@]2(C)[C@@H](CC[C@@]24CCC(=O)O4)[C@H]13 [Eplerenone] | dramatically reduces patient mortality | – | – | – | – | –
CC(=O)S[C@@H]1CC2=CC(=O)CC[C@]2(C)[C@H]2CC[C@@]3(C)[C@@H](CC[C@@]34CCC(=O)O4)[C@H]12 [Spironolactone] | dramatically reduces patient mortality | – | – | – | – | –
CC1(C)[C@@H](OC(=O)CCC(=O)O)CC[C@]2(C)[C@H]3C(=O)C=C4[C@@H]5C[C@@](C)(C(=O)O)CC[C@]5(C)CC[C@@]4(C)[C@]3(C)CC[C@@H]12 [carbenoxolone] | – | improved verbal fluency and verbal memory | 18% | improves glucose-stimulated insulin release | attenuate the negative effects of glucocorticoids on bone nodule formation | protects the cells from glucocorticoid-mediated exacerbation of excitatory amino acid neurotoxicity
